# Measured values taken from US6875451B2, “Compositions and methods for the treatment of primary and metastatic neoplastic diseases using arsenic compounds” (PolaRx Biopharmaceuticals Inc., priority 1997, dated 2005).
# Key:
# SF-539 = test: SRB growth assay, 6 days exposure, CNS cancer; type: cell-based; settings: SF-539, 6 days
# Procedure: (§1) Arsenic trioxide (1 mg/ml, 10 mg/ampoule, manufactured by Taylor Pharmaceuticals, Decatur, Ill.) was tested at five concentrations each at 10-fold dilutions, i.e., 10^−5, 10^−6, 10^−7, 10^−8 and 10^−9 μg/ml.
# (§2) The in vitro tests were performed by incubating the test cells in the presence of the indicated concentration of arsenic trioxide under standard culture conditions for a designated period of time, which is followed by a sulforhodamine B (SRB) protein assay to estimate cell viability or growth. The cell lines are organized into subpanels according to the origin of the cell lines, e.g., leukemia, breast cancer, etc. A description of the cell lines and method of testing is described in Monk et al. (1997, Anticancer Drug Des. 12:533-41) and Weinstein et al., (1997, Science 275:343-9), which are incorporated herein in their entirety.
# (§3) The measurement of an effect is expressed in Percentage Growth (PG). The measured effect of the compound on a cell line is calculated according to one or the other of the following two expressions: If (Mean ODtest−Mean ODzero)≧0. then PG=100×(Mean ODtest−Mean ODzero)/(Mean ODctrl−Mean ODzero) If (Mean ODtest−Mean ODzero)<0. then PG=100×(Mean ODtest−Mean ODzero)/(Mean ODzero where: • Mean ODzero=the average of optical density measurements of SRB-derived color just before exposure of cells to the test compounds; • Mean ODtest=the average of optical density measurements of SRB-derived color after exposure of cells to the test compound for a designated period of time; and • Mean ODctrl=the average of optical density measurements of SRB-derived color after with no exposure of cells to the test compound for a designated period of time
# (§4) The first two columns describe the subpanel (e.g., leukemia) and cell line (e.g., CCRF-CEM) involved. The next two columns list the Mean ODzero and Mean ODctrl; the next five columns list the Mean ODtest for each of five different concentrations. Each concentration is expressed as the log10 (molar or μg/ml). The next five columns list the calculated PGs for each concentration. The response parameters GI50, TGI and LC50 are interpolated values representing the concentrations at which the PG is +50, 0, and −50, respectively. Sometimes these response parameters cannot be obtained by interpolation. If, for instance, all of the PGs in a given row exceed +50, then none of the three parameters can be obtained by interpolation. In such a case, the value given for each response parameter is the highest concentration tested and is preceded by a “>” sign. This practice is extended similarly to the other possible situations where a response parameter cannot be obtained by interpolation.
# (§5) In the first set, the cells from 56 different cancer cell lines were exposed to five concentrations of arsenic trioxide continuously for two days prior to performing the SRB assay. In the second set, the cells from 50 different cell lines (a subset of the first 56 cell lines, plus the renal cancer cell line 786-0) were exposed continuously for six days prior to the SRB assay.
# U251 = test: SRB growth assay, 6 days exposure, CNS cancer; type: cell-based; settings: U251, 6 days
# Procedure: as §1, §2, §3, §4, §5
# SF-268 = test: SRB growth assay, 6 days exposure, CNS cancer; type: cell-based; settings: SF-268, 6 days
# Procedure: as §1, §2, §3, §4, §5
# SNB-75 = test: SRB growth assay, 6 days exposure, CNS cancer; type: cell-based; settings: SNB-75, 6 days
# Procedure: as §1, §2, §3, §4, §5
# SF-295 = test: SRB growth assay, 6 days exposure, CNS cancer; type: cell-based; settings: SF-295, 6 days
# Procedure: as §1, §2, §3, §4, §5
# [1] = tested on: 56 different cancer cell lines; test: NCI cancer cell line panel, SRB assay, first set, 2 days exposure (whole panel, mean graph); type: cell-based
# Procedure: as §1, §2, §3
# The first two columns describe the subpanel (e.g., leukemia) and cell line (e.g., CCRF-CEM) involved. The next two columns list the Mean ODzero and Mean ODctrl; the next five columns list the Mean ODtest for each of five different concentrations. Each concentration is expressed as the log10 (molar or μg/ml). The next five columns list the calculated PGs for each concentration. […]
# 50 different cell lines = test: NCI cancer cell line panel, SRB assay, second set, 6 days exposure (whole panel, mean graph); type: cell-based
# Procedure: as §1, §2
# The measurement of an effect is expressed in Percentage Growth (PG). […]
# The first two columns describe the subpanel (e.g., leukemia) and cell line (e.g., CCRF-CEM) involved. […] Each concentration is expressed as the log10 (molar or μg/ml). The next five columns list the calculated PGs for each concentration. […]
# [2] = tested on: NB4 cells, an APL cell line; settings: in vitro; cited from earlier work
substance,measurement,setting,value
arsenic trioxide,TGI,SF-539,3.29E−06
same,Mean Optical Densities,SF-539; Log 10 Concentration −4.9,0.017
same,Percent Growth,SF-539; Log 10 Concentration −4.9,−59%
same,Mean Optical Densities,SF-539; Log 10 Concentration −5.9,0.691
same,Percent Growth,SF-539; Log 10 Concentration −5.9,42%
same,Mean Optical Densities,SF-539; Log 10 Concentration −6.9,1.545
same,Percent Growth,SF-539; Log 10 Concentration −6.9,97%
same,Mean Optical Densities,SF-539; Log 10 Concentration −7.9,1.403
same,Percent Growth,SF-539; Log 10 Concentration −7.9,87%
same,Mean Optical Densities,SF-539; Log 10 Concentration −8.9,1.727
same,Percent Growth,SF-539; Log 10 Concentration −8.9,108%
same,TGI,U251,8.51E−07
same,Mean Optical Densities,U251; Log 10 Concentration −4.9,−0.012
same,Percent Growth,U251; Log 10 Concentration −4.9,−100%
same,Mean Optical Densities,U251; Log 10 Concentration −5.9,0.088
same,Percent Growth,U251; Log 10 Concentration −5.9,−17%
same,Mean Optical Densities,U251; Log 10 Concentration −6.9,1.908
same,Percent Growth,U251; Log 10 Concentration −6.9,81%
same,Mean Optical Densities,U251; Log 10 Concentration −7.9,2.018
same,Percent Growth,U251; Log 10 Concentration −7.9,86%
same,Mean Optical Densities,U251; Log 10 Concentration −8.9,2.129
same,Percent Growth,U251; Log 10 Concentration −8.9,91%
same,TGI,SF-268,2.57E−06
same,Mean Optical Densities,SF-268; Log 10 Concentration −4.9,−0.004
same,Percent Growth,SF-268; Log 10 Concentration −4.9,−100%
same,Mean Optical Densities,SF-268; Log 10 Concentration −5.9,0.387
same,Percent Growth,SF-268; Log 10 Concentration −5.9,45%
same,Mean Optical Densities,SF-268; Log 10 Concentration −6.9,0.356
same,Percent Growth,SF-268; Log 10 Concentration −6.9,41%
same,Mean Optical Densities,SF-268; Log 10 Concentration −7.9,0.381
same,Percent Growth,SF-268; Log 10 Concentration −7.9,44%
same,Mean Optical Densities,SF-268; Log 10 Concentration −8.9,0.990
same,Percent Growth,SF-268; Log 10 Concentration −8.9,126%
same,TGI,SNB-75,3.80E−06
same,Mean Optical Densities,SNB-75; Log 10 Concentration −4.9,0.028
same,Percent Growth,SNB-75; Log 10 Concentration −4.9,−79%
same,Mean Optical Densities,SNB-75; Log 10 Concentration −5.9,0.815
same,Percent Growth,SNB-75; Log 10 Concentration −5.9,73%
same,Mean Optical Densities,SNB-75; Log 10 Concentration −6.9,1.024
same,Percent Growth,SNB-75; Log 10 Concentration −6.9,96%
same,Mean Optical Densities,SNB-75; Log 10 Concentration −7.9,1.033
same,Percent Growth,SNB-75; Log 10 Concentration −7.9,97%
same,Mean Optical Densities,SNB-75; Log 10 Concentration −8.9,1.143
same,Percent Growth,SNB-75; Log 10 Concentration −8.9,108%
same,TGI,SF-295,3.25E−06
same,Mean Optical Densities,SF-295; Log 10 Concentration −4.9,0.010
same,Percent Growth,SF-295; Log 10 Concentration −4.9,−69%
same,Mean Optical Densities,SF-295; Log 10 Concentration −5.9,0.659
same,Percent Growth,SF-295; Log 10 Concentration −5.9,49%
same,Mean Optical Densities,SF-295; Log 10 Concentration −6.9,1.244
same,Percent Growth,SF-295; Log 10 Concentration −6.9,94%
same,Mean Optical Densities,SF-295; Log 10 Concentration −7.9,1.279
same,Percent Growth,SF-295; Log 10 Concentration −7.9,97%
same,Mean Optical Densities,SF-295; Log 10 Concentration −8.9,1.284
same,Percent Growth,SF-295; Log 10 Concentration −8.9,97%
same,reducing cell growth,"[1]; first set of tests, 2 days exposure, all cell lines tested",effective in reducing cell growth against almost all the cell lines tested
same,reduction of growth,"[1]; leukemic, melanoma and ovarian cancer cell lines, 2 days exposure",more than 50%
same,"sensitivity relative to all the cell lines tested (mean graph, FIG. 2)","[1]; most leukemic and melanoma cell lines, SNB-75, U251, PC-3, A498, CAKI-1, SN12C, NCI-H522, 2 days",especially sensitive
same,reducing cell growth,"50 different cell lines; second set of tests, all cell lines tested",effective in reducing cell growth against all the cell lines tested
same,sensitivity at the various principal response parameters,50 different cell lines; several melanoma cell lines,especially sensitive
same,apoptosis (programmed cell death),[2],induced apoptosis
